# Reference: paper doi:10.1101/2022.03.05.483025v1 (biorxiv, 2022)
# Where two headings read alike, the source gives them in different places.
# Legend:
# MERS-CoV Mpro [1] = molecular target: T1, MERS-CoV Mpro (Betacoronavirus England 1, UniProt K9N7C7); assay: biochemical
# SARS-CoV-1 Mpro [2] = molecular target: T2, SARS-CoV-1 Mpro (Severe acute respiratory syndrome-related coronavirus, UniProt P0C6X7); assay: biochemical
# SARS-CoV-2 Mpro [3] = molecular target: T3, SARS-CoV-2 Mpro (Severe acute respiratory syndrome coronavirus 2, UniProt P0DTD1); assay: rhodamine-based substrate peptide activity assay; type: biochemical
# HCoV-NL63 Mpro [4] = molecular target: T4, HCoV-NL63 Mpro (Human coronavirus NL63, UniProt P0C6X5); assay: biochemical
# Target sequence in this assay (P0C6X5 2940-3242 limits assumed): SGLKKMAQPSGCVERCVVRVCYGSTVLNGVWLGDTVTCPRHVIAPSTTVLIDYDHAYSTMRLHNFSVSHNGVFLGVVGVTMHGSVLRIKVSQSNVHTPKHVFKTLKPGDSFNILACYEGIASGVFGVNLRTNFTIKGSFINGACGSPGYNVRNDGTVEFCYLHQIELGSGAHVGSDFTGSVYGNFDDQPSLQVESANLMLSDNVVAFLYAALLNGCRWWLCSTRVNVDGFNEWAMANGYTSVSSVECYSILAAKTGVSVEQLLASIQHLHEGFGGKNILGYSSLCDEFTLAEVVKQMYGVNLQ
# HCoV-HKU1 Mpro [5] = molecular target: T5, HCoV-HKU1 Mpro (Human coronavirus HKU1 (isolate N1), UniProt P0C6X2); assay: biochemical
# Target sequence in this assay (P0C6X2 3335-3637 limits assumed): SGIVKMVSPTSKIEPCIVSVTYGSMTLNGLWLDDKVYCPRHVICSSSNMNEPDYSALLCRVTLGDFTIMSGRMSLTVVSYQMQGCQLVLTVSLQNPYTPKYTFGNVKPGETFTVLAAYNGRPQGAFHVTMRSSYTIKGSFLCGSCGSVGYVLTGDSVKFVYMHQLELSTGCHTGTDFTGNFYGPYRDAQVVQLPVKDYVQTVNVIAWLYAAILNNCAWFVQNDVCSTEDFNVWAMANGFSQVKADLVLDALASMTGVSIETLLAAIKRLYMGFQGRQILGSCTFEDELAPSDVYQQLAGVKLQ
# PorCoV-HKU15 Mpro [6] = molecular target: T6, PorCoV-HKU15 Mpro (Porcine coronavirus HKU15, UniProt H9BQY4); details: covalent
# MERS-CoV Mpro [7] = molecular target: T1, MERS-CoV Mpro; assay: biochemical; remark: listed apart in the source
# SARS-CoV-2 Mpro [8] = molecular target: T3, SARS-CoV-2 Mpro; assay: biochemical
# HCoV-229E Mpro [9] = molecular target: T7, HCoV-229E Mpro (Human coronavirus 229E, UniProt P0C6X1); assay: biochemical
# Target sequence in this assay (P0C6X1 2966-3267 limits assumed): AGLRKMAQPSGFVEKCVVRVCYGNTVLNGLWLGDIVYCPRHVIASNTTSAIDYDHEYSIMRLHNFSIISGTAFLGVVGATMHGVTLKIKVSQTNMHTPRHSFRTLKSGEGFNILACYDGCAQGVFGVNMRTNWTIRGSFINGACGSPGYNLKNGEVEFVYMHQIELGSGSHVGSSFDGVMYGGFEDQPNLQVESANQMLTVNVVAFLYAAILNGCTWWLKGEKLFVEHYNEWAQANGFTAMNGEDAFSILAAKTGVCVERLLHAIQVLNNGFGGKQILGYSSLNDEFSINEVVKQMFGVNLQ
# HCoV-NL63 Mpro [10] = molecular target: T4, HCoV-NL63 Mpro; assay: biochemical; remark: listed apart in the source
# Target sequence in this assay (P0C6X5 2940-3242): as the sequence (P0C6X5 2940-3242 limits assumed) above
# MERS-CoV Mpro [11] = molecular target: T1, MERS-CoV Mpro; assay: biochemical; remark: listed apart in the source
# HCoV-HKU1 Mpro [12] = molecular target: T5, HCoV-HKU1 Mpro; assay: biochemical; remark: listed apart in the source
# Target sequence in this assay (P0C6X2 3335-3637): as the sequence (P0C6X2 3335-3637 limits assumed) above
# HCoV-229E Mpro [13] = molecular target: T7, HCoV-229E Mpro; assay: biochemical; remark: listed apart in the source
# Target sequence in this assay (P0C6X1 2966-3267): as the sequence (P0C6X1 2966-3267 limits assumed) above
# PorCoV-HKU15 Mpro [14] = molecular target: T6, PorCoV-HKU15 Mpro; details: covalent; remark: listed apart in the source
# SARS-CoV-2 Mpro [15] = molecular target: T3, SARS-CoV-2 Mpro; assay: biochemical; remark: listed apart in the source
# SARS-CoV-2 Mpro [16] = molecular target: T3, SARS-CoV-2 Mpro; assay: Mpro substrate activity assay; type: biochemical
# SARS-CoV-2 Mpro [17] = molecular target: T3, SARS-CoV-2 Mpro; assay: RapidFire MS substrate peptide activity assay; type: biochemical
# HCoV-229E Mpro [18] = molecular target: T7, HCoV-229E Mpro; assay: RapidFire MS substrate peptide activity assay; type: biochemical
# Target sequence in this assay (P0C6X1 2966-3267): as the sequence (P0C6X1 2966-3267 limits assumed) above
# SARS-CoV-1 Mpro [19] = molecular target: T2, SARS-CoV-1 Mpro; assay: biochemical; remark: listed apart in the source
# HCoV-NL63 Mpro [20] = molecular target: T4, HCoV-NL63 Mpro; assay: RapidFire MS substrate peptide activity assay; type: biochemical
# Target sequence in this assay (P0C6X5 2940-3242): as the sequence (P0C6X5 2940-3242 limits assumed) above
# [21] = molecular target: avian infectious bronchitis virus (IBV) Mpro (Avian infectious bronchitis virus (strain Beaudette), UniProt P0C6Y1); assay: RapidFire MS substrate peptide activity assay; type: biochemical
# HCoV-OC43 Mpro = HCoV-OC43 Mpro (Human coronavirus OC43, UniProt P0C6X6); assay: RapidFire MS substrate peptide activity assay; type: biochemical
# HCoV-HKU1 Mpro [22] = molecular target: T5, HCoV-HKU1 Mpro; assay: RapidFire MS substrate peptide activity assay; type: biochemical
# Target sequence in this assay (P0C6X2 3335-3637): as the sequence (P0C6X2 3335-3637 limits assumed) above
# [23] = read-out: HW-1-87A (trans), covalent
# [24] = read-out: PM-2-20A (trans), covalent
# [25] = read-out: PM-2-27A (trans), covalent
# [26] = read-out: hidden head, 8th column, covalent
# T6 sequence (H9BQY4 2509-2811 limits assumed): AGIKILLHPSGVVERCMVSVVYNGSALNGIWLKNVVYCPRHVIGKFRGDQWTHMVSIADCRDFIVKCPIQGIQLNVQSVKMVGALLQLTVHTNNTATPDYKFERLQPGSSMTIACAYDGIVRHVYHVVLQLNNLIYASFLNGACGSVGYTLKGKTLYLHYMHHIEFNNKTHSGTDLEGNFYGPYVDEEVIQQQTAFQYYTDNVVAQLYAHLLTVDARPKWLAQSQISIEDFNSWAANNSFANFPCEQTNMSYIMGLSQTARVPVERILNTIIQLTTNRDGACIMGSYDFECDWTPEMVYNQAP
# T1 sequence (K9N7C7 3248-3553 limits assumed): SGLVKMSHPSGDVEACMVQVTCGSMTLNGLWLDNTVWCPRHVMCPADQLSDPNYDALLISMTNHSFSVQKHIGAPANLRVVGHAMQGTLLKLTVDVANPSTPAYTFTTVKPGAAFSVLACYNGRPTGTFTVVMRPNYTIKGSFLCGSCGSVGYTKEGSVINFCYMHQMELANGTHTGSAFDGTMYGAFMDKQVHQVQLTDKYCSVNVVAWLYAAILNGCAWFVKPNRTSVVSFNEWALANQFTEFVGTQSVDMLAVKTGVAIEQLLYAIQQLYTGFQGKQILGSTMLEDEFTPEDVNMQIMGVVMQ
# Sequence of HCoV-OC43 Mpro (P0C6X6 3247-3549): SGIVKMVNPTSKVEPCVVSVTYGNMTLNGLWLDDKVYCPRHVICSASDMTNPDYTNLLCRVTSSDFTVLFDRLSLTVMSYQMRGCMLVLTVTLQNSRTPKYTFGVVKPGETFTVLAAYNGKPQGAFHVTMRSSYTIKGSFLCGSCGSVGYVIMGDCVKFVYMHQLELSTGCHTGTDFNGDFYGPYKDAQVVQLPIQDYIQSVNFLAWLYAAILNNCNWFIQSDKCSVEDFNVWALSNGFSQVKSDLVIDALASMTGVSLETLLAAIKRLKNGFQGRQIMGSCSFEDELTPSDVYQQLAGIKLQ
# Sequence of avian infectious bronchitis virus (IBV) Mpro (P0C6Y1 2780-3086): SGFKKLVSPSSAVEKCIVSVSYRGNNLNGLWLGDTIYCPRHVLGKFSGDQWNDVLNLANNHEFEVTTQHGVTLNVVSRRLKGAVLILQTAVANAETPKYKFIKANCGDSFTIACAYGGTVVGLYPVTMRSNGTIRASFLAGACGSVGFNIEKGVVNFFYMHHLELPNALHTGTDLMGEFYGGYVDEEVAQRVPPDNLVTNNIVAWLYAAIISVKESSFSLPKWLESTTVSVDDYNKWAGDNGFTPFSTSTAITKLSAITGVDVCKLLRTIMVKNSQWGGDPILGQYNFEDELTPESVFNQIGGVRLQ
smiles,measurement,setting,value
O=C(CCl)N1N=C(c2ccccc2)CC1c1cccc2nccnc12 (racemic) [EN82],IC50,MERS-CoV Mpro [1],560 nM
same,IC50,SARS-CoV-1 Mpro [2],59 nM
same,IC50,SARS-CoV-2 Mpro [3],91 nM
O=C(CCl)N1N=C(c2ccccc2)[C@H](c2ccccc2)[C@H]1c1ccc2nccnc2c1 (relative stereo) [HW-1-87A (trans)],IC50,HCoV-NL63 Mpro [4]; [23],140 nM
same,IC50,HCoV-HKU1 Mpro [5]; [23],40 nM
same,IC50,PorCoV-HKU15 Mpro [6]; read-out: HW-1-87A (trans),4900 nM
same,IC50,MERS-CoV Mpro [7]; [23],340 nM
same,IC50,SARS-CoV-2 Mpro [8]; [23],85 nM
same,IC50,HCoV-229E Mpro [9]; [23],30 nM
"O=C(CCl)N1N=C(c2ccccc2)[C@H](c2ccccc2)[C@@H]1c1ccc2nccnc2c1 (relative stereo) [HW-1-187B, cis-HW-1-187B]",IC50,HCoV-NL63 Mpro [10],56 nM
same,IC50,MERS-CoV Mpro [11],1300 nM
same,IC50,HCoV-HKU1 Mpro [12],16 nM
same,IC50,SARS-CoV-2 Mpro [3],22 nM
same,IC50,HCoV-229E Mpro [13],2.3 nM
same,IC50,PorCoV-HKU15 Mpro [14]; read-out: HW-1-187B (cis),6300 nM
same,IC50,SARS-CoV-2 Mpro [15],1.4 nM
O=C(CCl)N1N=C(c2cc(Cl)ccc2F)[C@H](c2ccccc2)[C@@H]1c1ccc2nccnc2c1 (relative stereo) [HW-2-010B],IC50,SARS-CoV-2 Mpro [3],14 nM
O=C(CCl)N1N=C(c2ccccc2)[C@H](c2ccccc2)[C@H]1c1ccccc1 (relative stereo) [PM-2-20A (trans)],IC50,HCoV-NL63 Mpro [4]; [24],67 nM
same,IC50,HCoV-HKU1 Mpro [5]; [24],36 nM
same,IC50,PorCoV-HKU15 Mpro [6]; read-out: PM-2-20A (trans),4800 nM
same,IC50,MERS-CoV Mpro [7]; [24],3700 nM
same,IC50,SARS-CoV-2 Mpro [8]; [24],28 nM
same,IC50,HCoV-229E Mpro [9]; [24],3.6 nM
"O=C(CCl)N1N=C(c2ccccc2)[C@H](c2ccccc2)[C@@H]1c1ccccc1 (relative stereo) [PM-2-020B, cis-PM-02-020B]",IC50,HCoV-NL63 Mpro [10],350 nM
same,IC50,MERS-CoV Mpro [11],2800 nM
same,IC50,HCoV-HKU1 Mpro [12],200 nM
same,IC50,SARS-CoV-2 Mpro [3],62 nM
same,IC50,HCoV-229E Mpro [13],23 nM
same,IC50,PorCoV-HKU15 Mpro [14]; read-out: PM-2-20B (cis),1100 nM
same,IC50,SARS-CoV-2 Mpro [15],5.3 nM
O=C(CCl)N1N=C(c2ccccc2)[C@H](c2ccccc2)[C@H]1c1cccc2nccnc12 (relative stereo) [PM-2-27A (trans)],IC50,HCoV-NL63 Mpro [4]; [25],92 nM
same,IC50,HCoV-HKU1 Mpro [5]; [25],60 nM
same,IC50,PorCoV-HKU15 Mpro [6]; read-out: PM-2-27A (trans),5400 nM
same,IC50,MERS-CoV Mpro [7]; [25],3300 nM
same,IC50,SARS-CoV-2 Mpro [8]; [25],110 nM
same,IC50,HCoV-229E Mpro [9]; [25],46 nM
C=CS(=O)(=O)N1N=C(c2cc(Cl)ccc2F)[C@H](c2ccccc2)[C@@H]1c1ccc2nccnc2c1 (relative stereo) [PM-2-071B],IC50,SARS-CoV-2 Mpro [3],91 nM
O=C(CCl)N1N=C(c2ccccc2)C[C@H]1c1cccc2nccnc12 [(S)-EN82],IC50,SARS-CoV-2 Mpro [16],2700 nM
"C=CS(=O)(=O)N1N=C(c2cc(Cl)ccc2F)[C@@H](c2ccccc2)[C@H]1c1ccc2nccnc2c1 [(S,S)-PM-2-071, (S,S)-enantiomer of PM-2-071B]",IC50,SARS-CoV-2 Mpro [3],35 nM
O=C(CCl)N1N=C(c2cccc(Cl)c2)CC1c1cccc2nccnc12 (stereo not drawn) [LEB-2-172],IC50,HCoV-NL63 Mpro [4],11 nM
same,IC50,HCoV-HKU1 Mpro [5],0.96 nM
same,IC50,MERS-CoV Mpro [7],38 nM
same,IC50,SARS-CoV-2 Mpro [8],0.89 nM
same,IC50,HCoV-229E Mpro [9],5.5 nM
O=C(CCl)N1N=C(c2cc(F)cc(Cl)c2)CC1c1cccc2nccnc12 (stereo not drawn) [LEB-3-004],IC50,HCoV-NL63 Mpro [4],25 nM
same,IC50,HCoV-HKU1 Mpro [5],2.3 nM
same,IC50,PorCoV-HKU15 Mpro [6]; read-out: LEB-3-004,2100 nM
same,IC50,MERS-CoV Mpro [7],100 nM
same,IC50,SARS-CoV-2 Mpro [8],1.6 nM
same,IC50,HCoV-229E Mpro [9],5.3 nM
O=C(CCl)N1N=C(c2ccccc2)CC1c1cccnc1 (stereo not drawn) [NJH-1-147],IC50,HCoV-NL63 Mpro [4],330 nM
same,IC50,HCoV-HKU1 Mpro [5],26 nM
same,IC50,"PorCoV-HKU15 Mpro [6]; read-out: hidden head, 7th column",11000 nM
same,IC50,MERS-CoV Mpro [7],7200 nM
same,IC50,SARS-CoV-2 Mpro [8],58 nM
same,IC50,HCoV-229E Mpro [9],54 nM
O=C(CCl)N1N=C(c2ccccc2)CC1c1ccnc2[nH]ccc12 (stereo not drawn) [NJH-1-159],IC50,HCoV-NL63 Mpro [4]; [26],110 nM
same,IC50,HCoV-HKU1 Mpro [5]; [26],8.9 nM
same,IC50,"PorCoV-HKU15 Mpro [6]; read-out: hidden head, 8th column",9300 nM
same,IC50,MERS-CoV Mpro [7]; [26],960 nM
same,IC50,SARS-CoV-2 Mpro [8]; [26],20 nM
same,IC50,HCoV-229E Mpro [9]; [26],19 nM
C=CS(=O)(=O)N1N=C(c2cc(Cl)ccc2F)C(c2ccccc2)C1c1ccc2nccnc2c1 (stereo not drawn) [PM-2-071],IC50,SARS-CoV-2 Mpro [17],< 2 nM
same,IC50,HCoV-229E Mpro [18],< 1000 nM
same,IC50,SARS-CoV-1 Mpro [19],< 1000 nM
same,IC50,HCoV-NL63 Mpro [20],< 1000 nM
same,IC50,[21],< 1000 nM
same,IC50,HCoV-OC43 Mpro,< 2 nM
same,IC50,HCoV-HKU1 Mpro [22],< 2 nM
